Experimental data taken from US8043815B2, “Methods for analysis of PDEF and survivin as interconnected cancer biomarkers and targets for personalized medicine” (Health Research, Inc., priority 2007, dated 2011).

What was measured:
Type in all cases: cell-based
[1] = tested on: MDA-MB-231 breast cancer cells; assay: Cell growth and cell death of MDA-MB-231 cells after sequential MSA / Zebularine treatment (digital images); details: images 48 hours after new medium replacement
Procedure: (§1) FIG. 8 provides a photographic representation of results showing a synergistic effect of DNA methylation inhibitors in combination with DNA methylation inducers/promoters on massive cancer cell death. Sequential treatment of MDA-MB-231 breast cancer cells with methylseleninic acid (MSA, a DNA methylation inducer/promoter) for 48 hours and Zebularine (a DNA methylation inhibitor) for 24 hours alone or in combination as shown. Growth medium with drugs was replaced with complete new medium without drugs 24 hour after Zebularine treatment. Images were then taken using a digital camera 48 hours after new medium replacement.
as §1, with “Sequential” for “FIG. 8 provides a photographic representation of results showing a synergistic effect of DNA methylation inhibitors in combination with DNA methylation inducers/promoters on massive cancer cell death. Sequential”

[2] = tested on: PDEF-negative ovarian cancer cell lines; assay: Western blot of PDEF and survivin expression in PDEF-negative ovarian cancer cell lines treated with methylation inhibitor
Procedure: FIGS. 6A and 6B provide photographic representations of results obtained from Western blotting analysis of PDEF expression in PDEF-negative ovarian cancer cell lines treated with and without 5-aza-2-deoxycytidine (5-Aza-dC) for 5 days at 1 μM (FIG. 6A) or different concentrations of 5-Aza-dC (FIG. 6B).
We analyzed whether the loss of PDEF expression in cancer tissues during cancer progression is the result of epigenetic methylation of the PDEF gene. Four PDEF-negative ovarian cancer cell lines were treated with and without the methylation inhibitor 5-aza-2-deoxycytidine (5-Aza-dC) for 5 days at 1 μM (FIG. 6A) or different concentration of 5-Aza-dC (FIG. 6B). Cells were then lysed and analyzed for PDEF expression by Western blots.

[3] = tested on: HCT116 parental colon cancer cells; assay: Western blot of survivin and PDEF expression in HCT116 parental colon cancer cells; details: treated for 3 days
Procedure: (§2) FIG. 7 provides a photographic representation of results obtained from differential modulation of survivin and PDEF expression in an HCT116 parental colon cancer cell line, versus in an HCT116 cell line in which both the DNMT1 and DNMT3b DNA methyltransferases have been knocked out. Both HCT116 parental and double knockout (DNMT1^−/−/DNMT3B^−/−) colon cancer cell lines were treated with and without the methylation inhibitor 5-Aza-dC for 3 days as shown. Cells were lysed and analyzed for the expression of survivin and PDEF by western blots. Actin is the internal control of protein loading.
(§3) Since it is know that the survivin gene is not methylated, despite our identification of a CpG island in the survivin gene, this Example further supports that demethylation of PDEF via a DNA methylation inhibitor can facilitate downregulation of survivin expression.

[4] = tested on: HCT116 colon cancer cells with double knockout (DKO) of DNMT1 and DNMT3b; assay: Western blot of survivin and PDEF expression in HCT116 DNMT1/DNMT3b double knockout cells; details: treated for 3 days
Procedure: as §2, §3

| SMILES | cell growth inhibition ([1]; MSA 48 hours, Zebularine 24 hours, alone) | induction of cell death ([1]; alone or sequential combination (MSA then Zebularine)) | PDEF expression by western blots ([2]; four PDEF-negative ovarian cancer cell lines, 5 days at 1 μM or different concentration) | expression of survivin by Western blots ([2]; ovarian cancer cell lines with restored PDEF expression, different concentrations of 5-Aza-dC, 5 days (FIG. 6B)) | PDEF expression by western blots [3] | survivin expression by western blots [3] | PDEF expression by western blots [4] | survivin expression by western blots [4] |
| --- | --- | --- | --- | --- | --- | --- | --- | --- |
| C[Se](=O)O [MSA, methylseleninic acid] | only moderately inhibit cell growth | without induction of cell death | – | – | – | – | – | – |
| Nc1ncn([C@H]2C[C@H](O)[C@@H](CO)O2)c(=O)n1 [5-Aza-dC, 5-aza-2-deoxycytidine] | – | – | two of the four ovarian cancer cell lines showed restored expression of PDEF | reduces or eliminates the expression of survivin | induces PDEF expression | decreases survivin expression | no effect | no effect |
